Source: publication PMC9555642 (PLoS ONE, 2022)

How the values were obtained:
Kv4.3 = biological target: T1, Kv4.3 (Homo sapiens, UniProt Q9UK17); test: Cardiovascular ion channel panel, SyncroPatch 384PE patch clamp; format: cell-based; conditions: CHO K1 cell line, room temperature, 6 point cumulative assay
T1 construct: expressed in transfected cells; host or cells: Chinese hamster ovary K1 cell line
T1 sequence (Q9UK17 1-655): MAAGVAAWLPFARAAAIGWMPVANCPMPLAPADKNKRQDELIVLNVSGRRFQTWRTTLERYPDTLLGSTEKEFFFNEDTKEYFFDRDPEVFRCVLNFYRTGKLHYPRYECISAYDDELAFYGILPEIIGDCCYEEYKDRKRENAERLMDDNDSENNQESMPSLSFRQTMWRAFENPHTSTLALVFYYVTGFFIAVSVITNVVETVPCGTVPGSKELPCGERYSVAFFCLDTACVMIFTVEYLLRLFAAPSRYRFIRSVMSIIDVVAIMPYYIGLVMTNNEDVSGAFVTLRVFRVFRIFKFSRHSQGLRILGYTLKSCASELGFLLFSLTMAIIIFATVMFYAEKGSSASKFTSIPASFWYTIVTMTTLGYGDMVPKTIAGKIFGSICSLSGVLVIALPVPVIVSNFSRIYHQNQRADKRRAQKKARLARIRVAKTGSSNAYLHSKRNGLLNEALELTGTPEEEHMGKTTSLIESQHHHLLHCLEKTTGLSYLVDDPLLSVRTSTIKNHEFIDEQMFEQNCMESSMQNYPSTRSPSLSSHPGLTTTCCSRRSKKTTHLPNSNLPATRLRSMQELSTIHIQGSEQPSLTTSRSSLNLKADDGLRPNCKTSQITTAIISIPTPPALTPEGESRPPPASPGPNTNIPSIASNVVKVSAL

[1] = system: healthy HBEC at ALI cultures; test: TEER in healthy HBEC ALI cultures, TNF challenge; format: cell-based, human; conditions: TNF-challenged healthy HBEC, p = 0.0187
COPD HBEC ALI cultures = test: Paracellular permeability (FITC-dextran) in unchallenged ALI cultures; format: cell-based, human; conditions: 10 μM basolaterally for eight days, no challenge, four COPD donors, p = 0.0023
Method: Passage one cells were seeded into T75 cell culture flasks (250,000 cells/flask) and expanded in PneumaCult ExPlus medium (StemCell Technologies, Vancouver, Canada) at 37°C, 5% CO2. Once cells reached 70% confluency, they were dissociated with TrypLE Express dissociation media (Thermo Fisher Scientific, Waltham, USA) and frozen at -150°C in ExPlus with 10% DMSO. Passage two cells were thawed and seeded (20,000 cells/membrane) into 24-well HTS Transwell plates (Corning, Wiesbaden, Germany) for air-liquid interface (ALI) culturing. Cells were expanded in ExPlus medium until >50% confluent (four days). Apical medium was then removed, and basolateral medium was replaced with PneumaCult ALI medium (StemCell Technologies). Medium was changed three times per week during a four-week long differentiation phase.
The paracellular permeability was determined by using fluorescein isothiocyanate labeled 4kD-dextran (Sigma-Aldrich, St. Louis, USA). 18 hours after addition of 0.2 mg FITC-dextran in 200 μL medium to the apical side of the ALI cultures, the fluorescence in the basolateral medium was measured using PHERAstar FSX (excitation 485 nm and emission 520 nm) (BMG LABTECH, Ortenberg, Germany). The time point was chosen for optimal window in the assays as well as practical reasons and has been kept consistent in between different stimulations throughout this work. […]

HDAC10 = biological target: T2, HDAC10 (Homo sapiens, UniProt Q969S8); test: HDAC enzymatic activity (Eurofins); format: biochemical; conditions: Class IIB; ACY-1083 mean of two separate measurements, Ricolinostat and Tubastatin A one measurement
T2 construct: purchased Eurofins Pharma Discovery Services 2662
T2 sequence (Q969S8 1-669): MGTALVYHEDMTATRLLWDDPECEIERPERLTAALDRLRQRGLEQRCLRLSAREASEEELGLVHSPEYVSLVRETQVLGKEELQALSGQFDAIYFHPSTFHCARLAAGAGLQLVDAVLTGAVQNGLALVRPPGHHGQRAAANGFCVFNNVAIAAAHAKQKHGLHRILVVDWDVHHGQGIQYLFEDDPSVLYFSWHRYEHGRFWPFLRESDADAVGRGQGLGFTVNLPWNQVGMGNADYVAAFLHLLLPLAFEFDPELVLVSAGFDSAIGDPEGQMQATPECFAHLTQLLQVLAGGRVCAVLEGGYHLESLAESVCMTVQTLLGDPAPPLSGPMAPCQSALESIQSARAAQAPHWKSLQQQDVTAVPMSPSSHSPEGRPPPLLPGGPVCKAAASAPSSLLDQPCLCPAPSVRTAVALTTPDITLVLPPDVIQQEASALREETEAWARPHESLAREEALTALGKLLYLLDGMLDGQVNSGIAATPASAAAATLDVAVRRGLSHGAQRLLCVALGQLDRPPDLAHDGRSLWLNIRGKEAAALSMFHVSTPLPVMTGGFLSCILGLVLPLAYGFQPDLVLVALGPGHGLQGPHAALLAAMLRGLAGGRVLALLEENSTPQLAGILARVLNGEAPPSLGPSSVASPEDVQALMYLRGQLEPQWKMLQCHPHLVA

passage of FITC-dextran (paracellular permeability) (COPD HBEC ALI cultures): significantly reduced
IC50 (HDAC10): 18.5 µM
Substance: ACY-1083
activity on Kv4.3 (Kv4.3): > 30 µM
TEER [1]: reversed this decrease
